The results in this text go back to US9624170B2, “4-(piperrazin-1-yl)-pyrrolidin-2-one compounds as monoacylglycerol lipase (MAGL) inhibitors” (TAKEDA PHARMACEUTICAL COMPANY LIMITED, priority 2013, dated 2017).

The inhibition is the change of the read-out against control, counted positive when it falls. By % inhibition is commonly meant the percentage by which the read-out fell short of the control. Read a low % inhibition as a response near the control.

The first assay has as its target T1, human MAGL (His-hMAGL) (Homo sapiens, UniProt Q99685).
T1 construct: made in house; host or cells: Escherichia coli BL21(DE3)
T1 sequence (Q99685 1-303): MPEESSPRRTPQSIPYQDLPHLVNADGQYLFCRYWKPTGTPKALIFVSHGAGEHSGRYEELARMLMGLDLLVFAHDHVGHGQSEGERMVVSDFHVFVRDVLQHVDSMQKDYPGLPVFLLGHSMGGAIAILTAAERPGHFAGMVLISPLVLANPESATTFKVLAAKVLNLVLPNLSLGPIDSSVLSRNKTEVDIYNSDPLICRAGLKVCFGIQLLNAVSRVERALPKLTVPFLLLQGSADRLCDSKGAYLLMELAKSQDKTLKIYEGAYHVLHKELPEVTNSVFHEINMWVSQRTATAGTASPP
Nature of the assay: Measurement of MAGL inhibitory activity by mass spectrometry. The settings on record: 10 μM test compound; substrate 2-arachidonylglycerol, arachidonic acid by RapidFire-mass spectrometry. The format is biochemical. Summed up: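 His-tagged human MAGL was reacted with 150 μM 2-arachidonylglycerol substrate (stock, added by 5 μL) for 10 min at room temperature, then stopped with formic acid. Arachidonic acid product was quantified by RapidFire–triple-quadrupole MS in negative SRM mode, corrected by arachidonic acid-d8, and converted to percent inhibition.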
Regarding `Cc1ncccc1-c1cccc(N2CC(N3CCN(C(=O)c4ncco4)CC3)CC2=O)c1` (stereo not drawn) [Example 167, 1-(3-(2-methylpyridin-3-yl)phenyl)-4-(4-(1,3-oxazol-2-ylcarbonyl)piperazin-1-yl)pyrrolidin-2-one], the inhibition at 10 µM was determined as 94%.
Same read-out and setting: with `O=C(c1nccs1)N1CCN(C2CC(=O)N(c3ccc(F)c(Br)c3)C2)CC1` (stereo not drawn) [Example 170, 1-(3-bromo-4-fluorophenyl)-4-(4-(1,3-thiazol-2-ylcarbonyl)piperazin-1-yl)pyrrolidin-2-one] the figure was 98%; with `O=C(c1nccs1)N1CCN(C2CC(=O)N(c3ccc4c(ccn4-c4cc(C(F)(F)F)ccn4)c3)C2)CC1` (stereo not drawn) [Example 108, 4-(4-(1,3-thiazol-2-ylcarbonyl)piperazin-1-yl)-1-(1-(4-(trifluoromethyl)pyridin-2-yl)-1H-indol-5-yl)pyrrolidin-2-one], 97%.
Same read-out and setting: next, `Cc1noc(C)c1-c1cccc(N2CC(N3CCN(C(=O)c4nccs4)CC3)CC2=O)c1` (stereo not drawn) [Example 155, 1-(3-(3,5-dimethyl-1,2-oxazol-4-yl)phenyl)-4-(4-(1,3-thiazol-2-ylcarbonyl)piperazin-1-yl)pyrrolidin-2-one]: 99%.

The same assay, now with this note: MAGL inhibitory rate, test compound 10 μM, His-hMAGL, substrate 2-arachidonylglycerol, RapidFire-mass spectrometry.
For the compound `Cc1ccc(-c2ccc(N3CC(N4CCN(C(=O)c5nccs5)CC4)CC3=O)cc2)cn1` (stereo not drawn) [Example 265, 1-(4-(6-methylpyridin-3-yl)phenyl)-4-(4-(1,3-thiazol-2-ylcarbonyl)piperazin-1-yl)pyrrolidin-2-one], the inhibition at 10 µM was 97%.
`O=C(c1nccs1)N1CCN(C2CC(=O)N(c3ccnc(-c4ccccc4)c3)C2)CC1` (stereo not drawn) [Example 201, 1-(2-phenylpyridin-4-yl)-4-(4-(1,3-thiazol-2-ylcarbonyl)piperazin-1-yl)pyrrolidin-2-one]: the inhibition at 10 µM came to 84%.
Same read-out and setting: next, `O=C(c1cscn1)N1CCN([C@@H]2CC(=O)N(c3ccc4c(ccn4-c4cccc(C(F)(F)F)c4)c3)C2)CC1` [Example 421, (4R)-4-(4-(1,3-thiazol-4-ylcarbonyl)piperazin-1-yl)-1-(1-(3-(trifluoromethyl)phenyl)-1H-indol-5-yl)pyrrolidin-2-one]: 100%; `O=C(c1nccs1)N1CCN(C2CC(=O)N(c3ccc4c(c3)CCN4C(=O)Cc3ccccc3)C2)CC1` (stereo not drawn) [Example 392, 1-(1-(phenylacetyl)-2,3-dihydro-1H-indol-5-yl)-4-(4-(1,3-thiazol-2-ylcarbonyl)piperazin-1-yl)pyrrolidin-2-one]: 99%; `O=C(c1nccs1)N1CCN(C2CC(=O)N(c3ccc(-c4cccnc4)cc3)C2)CC1` (stereo not drawn) [Example 197, 1-(4-(pyridin-3-yl)phenyl)-4-(4-(1,3-thiazol-2-ylcarbonyl)piperazin-1-yl)pyrrolidin-2-one]: 89%.
On the same count and under the same terms, with `O=C(c1nccs1)N1CCN(C2CC(=O)N(c3ccc4c(c3)CCN4C(=O)Cc3ccc(Cl)cc3)C2)CC1` (stereo not drawn) [Example 393, 1-(1-((4-chlorophenyl)acetyl)-2,3-dihydro-1H-indol-5-yl)-4-(4-(1,3-thiazol-2-ylcarbonyl)piperazin-1-yl)pyrrolidin-2-one] the figure was 93%; with `O=C(c1nccs1)N1CCN(C2CC(=O)N(c3ccc4c(c3)CCN4c3ccnc(C(F)(F)F)c3)C2)CC1` (stereo not drawn) [Example 365, 4-(4-(1,3-thiazol-2-ylcarbonyl)piperazin-1-yl)-1-(1-(2-(trifluoromethyl)pyridin-4-yl)-2,3-dihydro-1H-indol-5-yl)pyrrolidin-2-one], 98%; with `Cc1ccccc1-n1ccc2cc(N3CC(N4CCN(C(=O)c5nccs5)CC4)CC3=O)ccc21` (stereo not drawn) [Example 253, 1-(1-(2-methylphenyl)-1H-indol-5-yl)-4-(4-(1,3-thiazol-2-ylcarbonyl)piperazin-1-yl)pyrrolidin-2-one], 101%.
Still for that read-out and setting: next, `N#Cc1ccc(-c2cccc(N3CC(N4CCN(C(=O)c5nccs5)CC4)CC3=O)c2)c(F)c1` (stereo not drawn) [Example 316, 2-fluoro-3′-(2-oxo-4-(4-(1,3-thiazol-2-ylcarbonyl)piperazin-1-yl)pyrrolidin-1-yl)biphenyl-4-carbonitrile]: 97%.
For `O=C(c1nccs1)N1CCN(C2CC(=O)N(c3ccc4c(c3)CCN4c3ccc(C(F)(F)F)cn3)C2)CC1` (stereo not drawn) [Example 383, 4-(4-(1,3-thiazol-2-ylcarbonyl)piperazin-1-yl)-1-(1-(5-(trifluoromethyl)pyridin-2-yl)-2,3-dihydro-1H-indol-5-yl)pyrrolidin-2-one], the inhibition at 10 µM was found to be 98%.
The same measure, in the same setting: next, `COc1c(-c2cccc(N3CC(N4CCN(C(=O)c5nccs5)CC4)CC3=O)c2)ccc2c1NC(=O)C2` (stereo not drawn) [Example 351, 7-Methoxy-6-(3-(2-oxo-4-(4-(1,3-thiazol-2-ylcarbonyl)piperazin-1-yl)pyrrolidin-1-yl)phenyl)-1,3-dihydro-2H-indol-2-one]: 100%; `O=C(c1ncco1)N1CCN(C2CC(=O)N(c3cccc(-c4cccnc4Cl)c3)C2)CC1` (stereo not drawn) [Example 224, 1-(3-(2-chloropyridin-3-yl)phenyl)-4-(4-(1,3-oxazol-2-ylcarbonyl)piperazin-1-yl)pyrrolidin-2-one]: 100%; `Cc1nn(C)c(C)c1-c1cccc(N2CC(N3CCN(C(=O)c4nccs4)CC3)CC2=O)c1` (stereo not drawn) [Example 312]: 101%.
Still for that read-out and setting: with `O=C(c1nccs1)N1CCN(C2CC(=O)N(c3ccc4c(ccn4-c4cccc(C(F)(F)F)c4)c3)C2)CC1` (stereo not drawn) [Example 280, 4-(4-(1,3-thiazol-2-ylcarbonyl)piperazin-1-yl)-1-(1-(3-(trifluoromethyl)phenyl)-1H-indol-5-yl)pyrrolidin-2-one] the figure was 101%.
In the case of `Cc1nc(C)c(-c2ccc(N3CC(N4CCN(C(=O)c5nccs5)CC4)CC3=O)cc2)s1` (stereo not drawn) [Example 189, 1-(4-(2,4-dimethyl-1,3-thiazol-5-yl)phenyl)-4-(4-(1,3-thiazol-2-ylcarbonyl)piperazin-1-yl)pyrrolidin-2-one], the inhibition at 10 µM stood at 97%.
Still for that read-out and setting: with `CS(=O)(=O)Nc1cccc(-c2ccc(N3CC(N4CCN(C(=O)c5nccs5)CC4)CC3=O)cc2)c1` (stereo not drawn) [Example 216, N-(4′-(2-oxo-4-(4-(1,3-thiazol-2-ylcarbonyl)piperazin-1-yl)pyrrolidin-1-yl)biphenyl-3-yl)methanesulfonamide] the figure was 97%; with `CC1(C)C(=O)Nc2cccc(-c3cccc(N4CC(N5CCN(C(=O)c6nccs6)CC5)CC4=O)c3)c21` (stereo not drawn) [Example 231, 3,3-dimethyl-4-(3-(2-oxo-4-(4-(1,3-thiazol-2-ylcarbonyl)piperazin-1-yl)pyrrolidin-1-yl)phenyl)-1,3-dihydro-2H-indol-2-one], 100%.
Still for that read-out and setting: with `Cc1ncccc1-c1cc(F)cc(N2CC(N3CCN(c4ncccn4)CC3)CC2=O)c1` (stereo not drawn) [Example 406, 1-(3-Fluoro-5-(2-methylpyridin-3-yl)phenyl)-4-(4-(pyrimidin-2-yl)piperazin-1-yl)pyrrolidin-2-one] the figure was 98%.
Same read-out and setting: with `N#Cc1ccc(-c2cccc(N3CC(N4CCN(C(=O)c5nccs5)CC4)CC3=O)c2)cc1` (stereo not drawn) [Example 295, 3′-(2-oxo-4-(4-(1,3-thiazol-2-ylcarbonyl)piperazin-1-yl)pyrrolidin-1-yl)biphenyl-4-carbonitrile] the figure was 98%; with `O=C(c1nccs1)N1CCN(C2CC(=O)N(c3cccc(-c4nc(C(F)(F)F)cs4)c3)C2)CC1` (stereo not drawn) [Example 349, 4-(4-(1,3-thiazol-2-ylcarbonyl)piperazin-1-yl)-1-(3-(4-(trifluoromethyl)-1,3-thiazol-2-yl)phenyl)pyrrolidin-2-one], 98%.
With `Cc1ncccc1-c1cc(N2CC(N3CCN(c4ncccn4)CC3)CC2=O)ccc1F` (stereo not drawn) [Example 404, 1-(4-fluoro-3-(2-methylpyridin-3-yl)phenyl)-4-(4-(pyrimidin-2-yl)piperazin-1-yl)pyrrolidin-2-one], the inhibition at 10 µM amounted to 96%.
For `Cc1nn(C)cc1-c1cccc(N2CC(N3CCN(C(=O)c4nccs4)CC3)CC2=O)c1` (stereo not drawn) [Example 325, 1-(3-(1,3-dimethyl-1H-pyrazol-4-yl)phenyl)-4-(4-(1,3-thiazol-2-ylcarbonyl)piperazin-1-yl)pyrrolidin-2-one], the inhibition at 10 µM worked out at 101%.
Still for that read-out and setting: with `N#Cc1cccc(F)c1-c1cccc(N2CC(N3CCN(C(=O)c4nccs4)CC3)CC2=O)c1` (stereo not drawn) [Example 336, 6-fluoro-3′-(2-oxo-4-(4-(1,3-thiazol-2-ylcarbonyl)piperazin-1-yl)pyrrolidin-1-yl)biphenyl-2-carbonitrile] the figure was 100%.
On the same count and under the same terms, next, `O=C(c1nccs1)N1CCN(C2CC(=O)N(c3ccc4c(ccn4-c4nccc(C(F)(F)F)n4)c3)C2)CC1` (stereo not drawn) [Example 281, 4-(4-(1,3-thiazol-2-ylcarbonyl)piperazin-1-yl)-1-(1-(4-(trifluoromethyl)pyrimidin-2-yl)-1H-indol-5-yl)pyrrolidin-2-one]: 99%; `Cc1ccccc1-c1cccc(N2CC(N3CCN(C(=O)c4cscn4)CC3)CC2=O)c1` (stereo not drawn) [Example 220, 1-(2′-methylbiphenyl-3-yl)-4-(4-(1,3-thiazol-4-ylcarbonyl)piperazin-1-yl)pyrrolidin-2-one]: 103%.

Still in this assay, the particulars now being: MAGL inhibitory rate, test compound 10 μM, His-hMAGL, substrate 2-arachidonylglycerol, RapidFire-mass spectrometry; 10 µM.
As for `O=C(c1nccs1)N1CCN(C2CC(=O)N(c3cccc(-c4cccnc4Cl)c3)C2)CC1` (stereo not drawn) [Example 266, 1-(3-(2-chloropyridin-3-yl)phenyl)-4-(4-(1,3-thiazol-2-ylcarbonyl)piperazin-1-yl)pyrrolidin-2-one(optical isomer)], the “% inhibition at 10 μM” value is given as 99%.
